# What was measured:
# Experiment in all cases: Minimum inhibitory concentration (MIC), Heart Infusion agar
# Format in all cases: cell-based
# [1] = test system: Ser. marcescens W-35; settings: Serratia marcescens, W35, 20 h, Ser. marcescens W-35; 10^6 cells/ml; 20 hours, 37° C. (Table 1); read-out: minimum inhibitory concentration (MIC)
# Protocol: (§1) Antibacterial activities of the representative compounds (Ib) of the 7α-methoxycephalosporins according to this invention are shown in Table 1. [drawing 20]
# The figures given in Table 1 represent the minimum inhibitory concentration (MIC in mcg/ml) of each compound, which was determined according to the method described in "Chemotherapy (Society of Chemotherapy, Japan), Vol. 16, 98-99 (1968)": A culture obtained by cultivating the test bacterium in a Heart Infusion broth (Eiken Kagaku Co.) was inoculated into a Heart Infusion agar medium (Eiken Kagaku Co.). After 20 hours of the incubation at 37° C., the growth of the bacterium was inspected to determine the minimum inhibitory concentration (MIC in mcg/ml). […]
# (§2) (1) Minimum inhibitory concentration (MIC in mcg/ml).
# [2] = test system: K. pneumoniae Y-50; settings: Klebsiella pneumoniae, Y50; K. pneumoniae Y-50; 10^6 cells/ml; 20 hours, 37° C.; read-out: minimum inhibitory concentration (MIC)
# Protocol: as §1
# (§3) The figures given in Table 1 represent the minimum inhibitory concentration (MIC in mcg/ml) of each compound, which was determined according to the method described in "Chemotherapy (Society of Chemotherapy, Japan), Vol. 16, 98-99 (1968)": A culture obtained by cultivating the test bacterium in a Heart Infusion broth (Eiken Kagaku Co.) was inoculated into a Heart Infusion agar medium (Eiken Kagaku Co.). After 20 hours of the incubation at 37° C., the growth of the bacterium was inspected to determine the minimum inhibitory concentration (MIC in mcg/ml). The inoculation rate of the bacterium was 10^4 cells/plate (10^6 cells/ml).
# as §2
# [3] = test system: Ps. aeruginosa S-68; settings: Pseudomonas aeruginosa, S68; Ps. aeruginosa S-68; 10^6 cells/ml; 20 hours, 37° C.; read-out: minimum inhibitory concentration (MIC)
# Protocol: as §1, §3, §2
# [4] = test system: Ser. marcescens IID620; settings: Serratia marcescens; Ser. marcescens IID620; 10^6 cells/ml; 20 hours, 37° C.; read-out: minimum inhibitory concentration (MIC)
# Protocol: as §1, §3, §2
# [5] = test system: Prot. vulgaris GN-76; settings: Proteus vulgaris, GN76; Prot. vulgaris GN-76; 10^6 cells/ml; 20 hours, 37° C.; read-out: minimum inhibitory concentration (MIC)
# Protocol: as §1, §3, §2
# [6] = test system: Ser. marcescens W-8; settings: Serratia marcescens, W8; Ser. marcescens W-8; 10^6 cells/ml; 20 hours, 37° C.; read-out: minimum inhibitory concentration (MIC)
# Protocol: as §1, §3, §2
# [7] = test system: Citrobacter N-7; settings: N7; Citrobacter N-7; 10^6 cells/ml; 20 hours, 37° C.; read-out: minimum inhibitory concentration (MIC)
# Protocol: as §1, §3, §2
# [8] = test system: Ps. aeruginosa IFO-3445; settings: Pseudomonas aeruginosa, IFO3445; Ps. aeruginosa IFO-3445; 10^6 cells/ml; 20 hours, 37° C.; read-out: minimum inhibitory concentration (MIC)
# Protocol: as §1, §3, §2
# [9] = test system: Klebsiella spp. Y-72; settings: SPP.Y72; Klebsiella spp. Y-72; 10^6 cells/ml; 20 hours, 37° C.; read-out: minimum inhibitory concentration (MIC)
# Protocol: as §1, §3, §2
# [10] = test system: E. coli NIHJ; settings: Escherichia coli; E. coli NIHJ; 10^6 cells/ml; 20 hours, 37° C.; read-out: minimum inhibitory concentration (MIC)
# Protocol: as §1, §3, §2
# [11] = test system: S. aureus F-19 (Penicillinase-producing bacterium); settings: Staphylococcus aureus; S. aureus F-19; 10^6 cells/ml; 20 hours, 37° C.; read-out: minimum inhibitory concentration (MIC)
# Protocol: as §1, §3, §2
# [12] = test system: Acinetobacter caloaceticus A-6; settings: A6; Acinetobacter caloaceticus A-6; 10^6 cells/ml; 20 hours, 37° C.; read-out: minimum inhibitory concentration (MIC)
# Protocol: as §1, §3, §2
# [13] = test system: Ent. cloacae IID977; settings: Enterobacter cloacae; Ent. cloacae IID977; 10^6 cells/ml; 20 hours, 37° C.; read-out: minimum inhibitory concentration (MIC)
# Protocol: as §1, §3, §2
# [14] = test system: C. freundii GN-346 (Cephalosporinase-producing bacterium); settings: Citrobacter freundii, GN346; C. freundii GN-346; 10^6 cells/ml; 20 hours, 37° C.; read-out: minimum inhibitory concentration (MIC)
# Protocol: as §1, §3, §2
SMILES,MIC [1] [µg/mL],MIC [2] [µg/mL],MIC [3] [µg/mL],MIC [4] [µg/mL],MIC [5] [µg/mL],MIC [6] [µg/mL],MIC [7] [µg/mL],MIC [8] [µg/mL],MIC [9] [µg/mL],MIC [10] [µg/mL],MIC [11] [µg/mL],MIC [12] [µg/mL],MIC [13] [µg/mL],MIC [14] [µg/mL]
CCN1CCN(C(=O)NC(C(=O)N[C@]2(OC)C(=O)N3C(C(=O)O)=C(CSc4nnnn4CC(N)=O)CS[C@@H]32)c2cccs2)C(=O)C1=O (stereo partly drawn),12.5,0.39,12.5,0.2,0.78,25,3.13,12.5,1.56,≤ 0.1,3.13,6.25,12.5,–
CCN1CCN(C(=O)NC(C(=O)N[C@]2(OC)C(=O)N3C(C(=O)O)=C(CSc4nnn(CCN(C)C)n4)CS[C@@H]32)c2cccs2)C(=O)C1=O (stereo partly drawn),–,0.78,–,0.2,3.13,50,3.13,50,–,≤ 0.1,6.25,25,25,25
CCN1CCN(C(=O)NC(C(=O)N[C@]2(OC)C(=O)N3C(C(=O)O)=C(CSc4nnnn4CCN(C)C)CS[C@@H]32)c2cccs2)C(=O)C1=O (stereo partly drawn),50,0.78,25,0.39,1.56,50,6.25,50,12.5,≤ 0.1,6.25,12.5,25,25
CCN1CCN(C(=O)NC(C(=O)N[C@]2(OC)C(=O)N3C(C(=O)O)=C(CSc4nncs4)CS[C@@H]32)c2cccs2)C(=O)C1=O (stereo partly drawn),12.5,0.39,25,0.78,0.78,25,12.5,25,1.56,≤ 0.1,6.25,12.5,100,100
C=Cn1nnnc1SCC1=C(C(=O)O)N2C(=O)[C@](NC(=O)C(NC(=O)N3CCN(CC)C(=O)C3=O)c3cccs3)(OC)[C@H]2SC1 (stereo partly drawn),12.5,0.39,12.5,0.2,0.78,25,3.13,25,6.25,≤ 0.1,3.13,12.5,25,12.5
CCN1CCN(C(=O)NC(C(=O)N[C@]2(OC)C(=O)N3C(C(=O)O)=C(CSc4nnnn4C)CS[C@@H]32)c2ccco2)C(=O)C1=O (stereo partly drawn),12.5,0.2,25,≤ 0.1,0.78,100,–,12.5,6.25,≤ 0.1,6.25,12.5,25,25
CCN1CCN(C(=O)NC(C(=O)N[C@]2(OC)C(=O)N3C(C(=O)O)=C(CSc4nnnn4CC(N)=O)CS[C@@H]32)c2ccco2)C(=O)C1=O (stereo partly drawn),6.25,0.2,–,≤ 0.1,1.56,–,–,12.5,–,≤ 0.1,6.25,–,25,–
CCN1CCN(C(=O)NC(C(=O)N[C@]2(OC)C(=O)N3C(C(=O)O)=C(CSc4nnnn4CCO)CS[C@@H]32)c2ccco2)C(=O)C1=O (stereo partly drawn),–,0.2,–,≤ 0.1,1.56,–,–,12.5,–,≤ 0.1,6.25,–,25,–
C=Cn1nnnc1SCC1=C(C(=O)O)N2C(=O)[C@](NC(=O)C(NC(=O)N3CCN(CC)C(=O)C3=O)c3ccco3)(OC)[C@H]2SC1 (stereo partly drawn),–,0.2,–,≤ 0.1,3.13,–,–,25,–,≤ 0.1,3.13,–,25,–
CCN1CCN(C(=O)NC(C(=O)N[C@]2(OC)C(=O)N3C(C(=O)O)=C(CSc4nnnn4C)CS[C@@H]32)c2csc(N)n2)C(=O)C1=O (stereo partly drawn),–,0.2,25,≤ 0.1,0.78,100,1.56,12.5,1.56,≤ 0.1,3.13,25,25,50
CCN1CCN(C(=O)NC(C(=O)N[C@]2(OC)C(=O)N3C(C(=O)O)=C(CSc4nnnn4CC(N)=O)CS[C@@H]32)c2csc(N)n2)C(=O)C1=O (stereo partly drawn),–,–,–,≤ 0.1,1.56,–,–,12.5,–,≤ 0.1,3.13,12.5,–,–
CCN1CCN(C(=O)NC(C(=O)N[C@]2(OC)C(=O)N3C(C(=O)O)=C(CSc4nnc(C)s4)CS[C@@H]32)c2csc(N)n2)C(=O)C1=O (stereo partly drawn),–,–,–,0.39,3.13,–,–,25,–,≤ 0.1,6.25,25,–,–
CCN1CCN(C(=O)NC(C(=O)N[C@]2(OC)C(=O)N3C(C(=O)O)=C(COC(C)=O)CS[C@@H]32)c2csc(N)n2)C(=O)C1=O (stereo partly drawn) [OCOCH3],–,–,–,0.39,3.13,–,–,25,–,≤ 0.1,6.25,25,–,–
